Details: buffer, pH 7.4

Row | Aqueous solubility [ng/mL] | Compound
1 | > 250 | COc1ccc(C(=O)/C(Cc2cc(OC)c(OC)c(OCCCC(=O)O)c2)=C(\C(=O)[O-])c2ccc3c(c2)OCO3)cc1.[Na+]
2 | > 125 | COc1ccc(C(=O)/C(Cc2cc(OC)c(OC)c(OC)c2)=C(\C(=O)[O-])c2ccc3c(c2)OCO3)cc1.[Na+] [PD-156707 SODIUM]
3 | < 0.01 | COc1ccc(C2(O)OC(=O)C(c3ccc4c(c3)OCO4)=C2Cc2cc(OC)c(OC)c(OC)c2)cc1 (stereo not drawn) [PD-156707]

— ChEMBL document CHEMBL1132648, “Butenolide endothelin antagonists with improved aqueous solubility” (J Med Chem, 1999)
